According to patent US12606567B2, “Salts and forms of a WEE1 inhibitor” (Recurium IP Holdings, LLC, priority 2020, dated 2026):
Values after ≈ are worked out from the molar mass of the structure shown. Counter-ions that a name gives are not always drawn.

Columns and labels:
Type in all cases: physicochemical
[1] = Thermodynamic stability compared with the amorphous freebase (TGA); conditions: compared with amorphous freebase of Compound A
Method: The TGA curve of the amorphous freebase of Compound A indicated a substantial and gradual weight loss starting at 30° C. and continuing to 150° C. with a total of about 17% loss.
TGA data were collected using a TA Q5000/Discovery 5500 TGA from TA Instruments. DSC was performed using a TA Q2000/Discovery 2500 DSC from TA Instruments.

[2] = Equilibrium solubility in SGF, H2O, FaSSIF and FeSSIF, slurry at 37° C. for 24 hrs; conditions: for Solubility / pH of supernatant / Form of residual solid (XRPD): 37° C., 24 hrs
Method: About 10-50 mg of each sample was weighed into 1.0 mL of each medium followed by slurry at 37° C. for 24 hrs. The samples were centrifuged and filtered using 0.45 μm PTFE filter. The solids were tested by XRPD and the supernatants were tested by HPLC and pH.

[3] = Solid-state stability of the forms under storage (HPLC purity, XRPD form); conditions: for Form change on storage: all tested stability conditions
Method: It only slightly degraded at 60° C. after 2 weeks and at 80° C. after 3 days.

[4] = Hygroscopicity by DVS isotherm at 25° C. between 0% RH and 95% RH, XRPD after DVS; conditions: for Water uptake (DVS): 25° C./80% RH; for Form change after DVS test (XRPD): after DVS at 25° C., 0% RH-95% RH
Method: DVS data was measured via a SMS (Surface Measurement Systems) DVS Intrinsic. The relative humidity at 25° C. was calibrated against the deliquescence point of LiCl, Mg(NO3)2 and KCl.

[5] = Initial, for the 25° C./60% RH, 40° C./75% RH and 60° C. series

Compound: C=CCn1c(=O)c2cnc(Nc3ccc(N4CCN(C)CC4)cc3)nc2n1-c1ccc2c(n1)[C@@](O)(CC)CC2 [Adipate salt Form A]
- Thermodynamic stability [1]: more thermodynamically stable than the amorphous freebase
- Solubility ([2]; FaSSIF): 30800 µg/mL
- pH of supernatant ([2]; FaSSIF): 4.8
- Form of residual solid (XRPD) ([2]; FeSSIF): Adipate Salt Form A
- Solubility ([2]; FeSSIF): 5600 µg/mL
- pH of supernatant ([2]; FeSSIF): 4.8
- Form of residual solid (XRPD) ([2]; H2O): Adipate Salt Form A
- Solubility ([2]; H2O): 25500 µg/mL
- pH of supernatant ([2]; H2O): 4.7
- Form of residual solid (XRPD) ([2]; SGF): Adipate Salt Form A
- Solubility ([2]; SGF): 34100 µg/mL
- pH of supernatant ([2]; SGF): 4.4
- Solubility comparison ([2]; SGF, H2O, FaSSIF, FeSSIF): higher solubility than freebase Form E of Compound A
- Solid state stability ([3]; 4 weeks at 25° C./60% RH and 40° C./75% RH, 2 weeks at 60° C., 3 days at 80° C.): stable
- Purity (area %) ([3]; 25° C./60% RH, 2 week): 98.85 area %
- Purity/Initial (%) ([3]; 25° C./60% RH, 2 week): 100.1%
- Purity (area %) ([3]; 25° C./60% RH, 4 week): 98.91 area %
- Purity/Initial (%) ([3]; 25° C./60% RH, 4 week): 100.2%
- Purity (area %) ([3]; 40° C./75% RH, 2 week): 98.82 area %
- Purity/Initial (%) ([3]; 40° C./75% RH, 2 week): 100.1%
- Purity (area %) ([3]; 40° C./75% RH, 4 week): 98.85 area %
- Purity/Initial (%) ([3]; 40° C./75% RH, 4 week): 100.1%
- Purity (area %) ([3]; 60° C., 2 week): 98.25 area %
- Purity/Initial (%) ([3]; 60° C., 2 week): 99.5%
- Purity (area %) ([3]; 60° C., 4 week): 97.80 area %
- Purity/Initial (%) ([3]; 60° C., 4 week): 99.1%
- Purity (area %) ([3]; 80° C., 1 day): 99.02 area %
- Purity/Initial (%) ([3]; 80° C., 1 day): 100.0%
- Purity (area %) ([3]; 80° C., 3 day): 98.77 area %
- Purity/Initial (%) ([3]; 80° C., 3 day): 99.7%
- Purity (area %) ([3]; 80° C., 7 day): 98.44 area %
- Purity/Initial (%) ([3]; 80° C., 7 day): 99.4%
- Purity (area %) [3, 5]: 98.72 area %
- Purity (area %) ([3]; Initial, for the 80° C. series): 99.03 area %
- Degradation ([3]; after 4 weeks at 60° C.): 0.9%
- Degradation ([3]; after 7 days at 80° C.): 0.6%
- Form change on storage [3]: no form change
- Water uptake (DVS) [4]: 2.2%
- Form change after DVS test (XRPD) [4]: No form change

Compound: C=CCn1c(=O)c2cnc(Nc3ccc(N4CCN(C)CC4)cc3)nc2n1-c1ccc2c(n1)[C@@](O)(CC)CC2 [Freebase Form E]
- Thermodynamic stability [1]: more thermodynamically stable than the amorphous freebase
- Form of residual solid (XRPD) ([2]; FaSSIF): Freebase Form E
- Solubility ([2]; FaSSIF): 1400 µg/mL (≈ 2.66 mM)
- pH of supernatant ([2]; FaSSIF): 6.8
- Form of residual solid (XRPD) ([2]; FeSSIF): Amorphous
- Solubility ([2]; FeSSIF): 2600 µg/mL (≈ 4.94 mM)
- pH of supernatant ([2]; FeSSIF): 5.4
- Form of residual solid (XRPD) ([2]; H2O): Freebase Form E
- Solubility ([2]; H2O): 99 µg/mL (≈ 0.188 mM)
- pH of supernatant ([2]; H2O): 8.4
- Form of residual solid (XRPD) ([2]; SGF): Freebase Form E
- Solubility ([2]; SGF): 9000 µg/mL (≈ 17.1 mM)
- pH of supernatant ([2]; SGF): 6.6
- Solid state stability ([3]; 4 weeks at 25° C./60% RH, 40° C./75% RH and 60° C., 7 days at 80° C.): stable
- Purity (area %) ([3]; 25° C./60% RH, 2 week): 99.37 area %
- Purity/Initial (%) ([3]; 25° C./60% RH, 2 week): 100.0%
- Purity (area %) ([3]; 25° C./60% RH, 4 week): 99.39 area %
- Purity/Initial (%) ([3]; 25° C./60% RH, 4 week): 100.0%
- Purity (area %) ([3]; 40° C./75% RH, 2 week): 99.45 area %
- Purity/Initial (%) ([3]; 40° C./75% RH, 2 week): 100.1%
- Purity (area %) ([3]; 40° C./75% RH, 4 week): 99.45 area %
- Purity/Initial (%) ([3]; 40° C./75% RH, 4 week): 100.1%
- Purity (area %) ([3]; 60° C., 2 week): 99.35 area %
- Purity/Initial (%) ([3]; 60° C., 2 week): 100.0%
- Purity (area %) ([3]; 60° C., 4 week): 99.16 area %
- Purity/Initial (%) ([3]; 60° C., 4 week): 99.8%
- Purity (area %) ([3]; 80° C., 1 day): 99.48 area %
- Purity/Initial (%) ([3]; 80° C., 1 day): 100.0%
- Purity (area %) ([3]; 80° C., 3 day): 99.31 area %
- Purity/Initial (%) ([3]; 80° C., 3 day): 99.9%
- Purity (area %) ([3]; 80° C., 7 day): 99.12 area %
- Purity/Initial (%) ([3]; 80° C., 7 day): 99.7%
- Purity (area %) [3, 5]: 99.35 area %
- Purity (area %) ([3]; Initial, for the 80° C. series): 99.44 area %
- Form change on storage [3]: no form change
- Water uptake (DVS) ([4]; listed as freebase Form E of Compound A): 0.6%
- Form change after DVS test (XRPD) [4]: No form change

Compound: C=CCn1c(=O)c2cnc(Nc3ccc(N4CCN(C)CC4)cc3)nc2n1-c1ccc2c(n1)[C@@](O)(CC)CC2 [freebase Form J]
- Thermodynamic stability [1]: more thermodynamically stable than the amorphous freebase
